Measured values: publication PMC6151383 (Molecules : A Journal of Synthetic Chemistry and Natural …, 2017)
Converted amounts (≈) assume the structure as drawn. Like-named read-outs stand apart in the source and are kept apart here.

Tests used:
[1] = tested on: Staphylococcus aureus CCM 4516/08; test: Antibacterial microdilution broth MIC, S. aureus; assay type: cell-based; details: 48 h incubation, read-out: MIC SA 48 h
[2] = tested on: Staphylococcus epidermidis H 6966/08; test: Antibacterial microdilution broth MIC, S. epidermidis; assay type: cell-based
[3] = tested on: Enterococcus faecalis J 14365/08; test: Antibacterial microdilution broth MIC, E. faecalis; assay type: cell-based
[4] = tested on: Escherichia coli CCM 4517; test: Antibacterial microdilution broth MIC, E. coli; assay type: cell-based
[5] = tested on: Pseudomonas aeruginosa CCM 1961; test: Antibacterial microdilution broth MIC, P. aeruginosa; assay type: cell-based; details: 48 h incubation, read-out: MIC PA 48 h
[6] = tested on: Mycobacterium tuberculosis 331/88 (H37Rv); test: In vitro antimycobacterial MIC, M. tuberculosis; assay type: cell-based
[7] = tested on: Mycobacterium avium 330/88; test: In vitro antimycobacterial MIC, M. avium; assay type: cell-based
[8] = tested on: Mycobacterium kansasii 235/80; test: In vitro antimycobacterial MIC, M. kansasii 235/80; assay type: cell-based
M. kansasii 6509/96 = test: In vitro antimycobacterial MIC, M. kansasii clinical isolate; assay type: cell-based; details: Mycobacterium kansasii
[9] = tested on: Candida albicans ATCC 44859; test: Antifungal microdilution broth MIC, C. albicans; assay type: cell-based; details: ATCC44859, 48 h incubation, read-out: MIC CA 48 h
Candida tropicalis 156 = test: Antifungal microdilution broth MIC, C. tropicalis; assay type: cell-based
Candida krusei E28 = test: Antifungal microdilution broth MIC, C. krusei; assay type: cell-based; details: Pichia kudriavzevii
Candida glabrata 20/I = test: Antifungal microdilution broth MIC, C. glabrata; assay type: cell-based; details: Nakaseomyces glabratus, 48 h incubation, read-out: MIC CG 48 h
Trichosporon asahii 1188 = test: Antifungal microdilution broth MIC, T. asahii; assay type: cell-based
[10] = tested on: Aspergillus fumigatus 231; test: Antifungal microdilution broth MIC, A. fumigatus; assay type: cell-based
[11] = tested on: Lichtheimia corymbifera 272; test: Antifungal microdilution broth MIC, L. corymbifera; assay type: cell-based
[12] = tested on: Trichophyton interdigitale 445; test: Antifungal microdilution broth MIC, T. interdigitale; assay type: cell-based
[13] = tested on: yeasts (Candida sp., T. asahii); test: Antifungal activity against yeasts; assay type: cell-based; details: read-out: MIC for yeasts
[14] = tested on: Klebsiella pneumoniae D 11750/08
[15] = tested on: ESBL-positive Klebsiella pneumoniae J 14368/08
[16] = tested on: Klebsiella pneumoniae D 11750/08; test: Antibacterial microdilution broth MIC, K. pneumoniae; details: 48 h incubation
[17] = Staphylococcus epidermidis, H6966/08, 48 h incubation, read-out: MIC SE 48 h
[18] = Pseudomonas aeruginosa, CCM1961
[19] = 336 h, 14 d incubation, read-out: MIC Mtb. 331/88 14 d
[20] = 504 h, 21 d incubation, read-out: MIC Mtb. 331/88 21 d
[21] = 330/88, 336 h, 14 d incubation, read-out: MIC M. avium 330/88 14 d
[22] = 330/88, 504 h, 21 d incubation, read-out: MIC M. avium 330/88 21 d
[23] = 235/80, 168 h, 7 d incubation, read-out: MIC M. kansasii 235/80 7 d
[24] = 235/80, 336 h, 14 d incubation, read-out: MIC M. kansasii 235/80 14 d
[25] = 235/80, 504 h, 21 d incubation, read-out: MIC M. kansasii 235/80 21 d
[26] = 6509/96, 168 h, 7 d incubation, read-out: MIC M. kansasii 6509/96 7 d
[27] = 6509/96, 336 h, 14 d incubation, read-out: MIC M. kansasii 6509/96 14 d
[28] = 6509/96, 504 h, 21 d incubation, read-out: MIC M. kansasii 6509/96 21 d

`O=S(=O)(Nc1ncccn1)c1ccc(N=Cc2cc(Cl)cc(Br)c2O)cc1` [Compound 2n, 4-[(3-Bromo-5-chloro-2-hydroxybenzylidene)amino]-N-(pyrimidin-2-yl)benzenesulfonamide] was tested, and the MIC ([1]; Staphylococcus aureus, CCM4516) was 31.2 µM (≈ 14.6 µg/mL), the MIC [2, 17] was 31.2 µM (≈ 14.6 µg/mL) and the MIC ([3]; Enterococcus faecalis, J14365/08, 48 h incubation, read-out: MIC EF 48 h) was > 500 µM. For the same compound, the MIC ([4]; Escherichia coli, CCM4517, 48 h incubation, read-out: MIC EC 48 h) was 500 µM (≈ 234 µg/mL), the MIC [5, 18] was > 500 µM and the MIC [6, 19] was 125 µM (≈ 58.5 µg/mL). For the same compound, the MIC [6, 20] was 125 µM (≈ 58.5 µg/mL), the MIC [7, 21] was 250 µM (≈ 117 µg/mL) and the MIC [7, 22] was 500 µM (≈ 234 µg/mL). For the same compound, the MIC [8, 23] was 125 µM (≈ 58.5 µg/mL), the MIC [8, 24] was 125 µM (≈ 58.5 µg/mL) and the MIC [8, 25] was 250 µM (≈ 117 µg/mL). The MIC (M. kansasii 6509/96; [26]) was 62.5 µM (≈ 29.2 µg/mL), the MIC (M. kansasii 6509/96; [27]) was 125 µM (≈ 58.5 µg/mL) and the MIC (M. kansasii 6509/96; [28]) was 125 µM (≈ 58.5 µg/mL). For the same compound, the MIC [9] was 31.2 µM (≈ 14.6 µg/mL), the MIC (Candida tropicalis 156; Candida tropicalis, 156, 24 h, read-out: MIC CT 24 h) was 62.5 µM (≈ 29.2 µg/mL) and the MIC (Candida tropicalis 156; Candida tropicalis, 156, 48 h, read-out: MIC CT 48 h) was 62.5 µM (≈ 29.2 µg/mL). It also gave an MIC (Candida krusei E28; E28, 24 h, read-out: MIC CK 24 h) of 62.5 µM (≈ 29.2 µg/mL), an MIC (Candida krusei E28; E28, 48 h, read-out: MIC CK 48 h) of 62.5 µM (≈ 29.2 µg/mL) and an MIC (Candida glabrata 20/I) of 31.2 µM (≈ 14.6 µg/mL). The MIC (Trichosporon asahii 1188; Trichosporon asahii, 1188, 24 h, read-out: MIC TA 24 h) was 62.5 µM (≈ 29.2 µg/mL), the MIC (Trichosporon asahii 1188; Trichosporon asahii, 1188, 48 h, read-out: MIC TA 48 h) was 62.5 µM (≈ 29.2 µg/mL) and the MIC ([10]; Aspergillus fumigatus, 231, 48 h incubation, read-out: MIC AF 48 h) was 250 µM (≈ 117 µg/mL). It also gave an MIC ([11]; Lichtheimia corymbifera, 272, 48 h incubation, read-out: MIC LC 48 h) of 500 µM (≈ 234 µg/mL), an MIC ([12]; Trichophyton interdigitale, 445, 72 h, read-out: MIC TI 72 h) of 62.5 µM (≈ 29.2 µg/mL) and an MIC ([12]; Trichophyton interdigitale, 445, 120 h, read-out: MIC TI 120 h) of 62.5 µM (≈ 29.2 µg/mL). For the same compound, the MIC [13] was 31.2 to 125 µM (≈ 14.6 to 58.5 µg/mL), the “MIC KP 24 h” value ([14]; 24 h) was >500 µM and the “MIC KP 48 h” value ([14]; 48 h) was >500 µM. For the same compound, the “MIC KP-E 24 h” value ([15]; 24 h) was 500 µM (≈ 234 µg/mL) and the “MIC KP-E 48 h” value ([15]; 48 h) was 500 µM (≈ 234 µg/mL).

Compound `O=S(=O)(Nc1ncccn1)c1ccc(N=Cc2cc(I)cc(I)c2O)cc1` [Compound 2p, 4-[(2-Hydroxy-3,5-diiodobenzylidene)amino]-N-(pyrimidin-2-yl)benzenesulfonamide] has an MIC ([1]; Staphylococcus aureus, CCM4516) of 7.81 µM (≈ 4.73 µg/mL), an MIC [2, 17] of 7.81 µM (≈ 4.73 µg/mL) and an MIC ([2]; Staphylococcus epidermidis, H6966/08, incubation time not given, read-out: MIC for S. epidermidis) of 7.81 µM (≈ 4.73 µg/mL). The MIC ([3]; Enterococcus faecalis, J14365/08, 24 h, read-out: MIC EF 24 h) was 125 µM (≈ 75.8 µg/mL), the MIC ([3]; Enterococcus faecalis, J14365/08, 48 h, read-out: MIC EF 48 h) was 125 µM (≈ 75.8 µg/mL) and the MIC ([4]; Escherichia coli, CCM4517, 24 h, read-out: MIC EC 24 h) was 125 µM (≈ 75.8 µg/mL). The MIC ([4]; Escherichia coli, CCM4517, 48 h, read-out: MIC EC 48 h) was 125 µM (≈ 75.8 µg/mL), the MIC [5, 18] was 500 µM (≈ 303 µg/mL) and the MIC [6, 19] was 250 µM (≈ 152 µg/mL). It also gave an MIC [6, 20] of 250 µM (≈ 152 µg/mL), an MIC [7, 21] of 250 µM (≈ 152 µg/mL) and an MIC [7, 22] of 500 µM (≈ 303 µg/mL). For the same compound, the MIC [8, 23] was 125 µM (≈ 75.8 µg/mL), the MIC [8, 24] was 250 µM (≈ 152 µg/mL) and the MIC [8, 25] was 250 µM (≈ 152 µg/mL). For the same compound, the MIC (M. kansasii 6509/96; [26]) was 62.5 µM (≈ 37.9 µg/mL), the MIC (M. kansasii 6509/96; [27]) was 125 µM (≈ 75.8 µg/mL) and the MIC (M. kansasii 6509/96; [28]) was 250 µM (≈ 152 µg/mL). It also gave an MIC [9] of 3.9 µM (≈ 2.36 µg/mL), an MIC (Candida tropicalis 156; Candida tropicalis, 156, 48 h incubation, read-out: MIC CT 48 h) of 7.81 µM (≈ 4.73 µg/mL) and an MIC (Candida krusei E28; E28, 48 h incubation, read-out: MIC CK 48 h) of 7.81 µM (≈ 4.73 µg/mL). For the same compound, the MIC (Candida glabrata 20/I) was 3.9 µM (≈ 2.36 µg/mL), the MIC (Trichosporon asahii 1188; Trichosporon asahii, 1188, 48 h incubation, read-out: MIC TA 48 h) was 3.9 µM (≈ 2.36 µg/mL) and the MIC ([10]; Aspergillus fumigatus, 231, 24 h, read-out: MIC AF 24 h) was 62.5 µM (≈ 37.9 µg/mL). For the same compound, the MIC ([10]; Aspergillus fumigatus, 231, 48 h, read-out: MIC AF 48 h) was 62.5 µM (≈ 37.9 µg/mL), the MIC ([11]; Lichtheimia corymbifera, 272, 24 h, read-out: MIC LC 24 h) was 62.5 µM (≈ 37.9 µg/mL) and the MIC ([11]; Lichtheimia corymbifera, 272, 48 h, read-out: MIC LC 48 h) was 62.5 µM (≈ 37.9 µg/mL). For the same compound, the MIC ([12]; Trichophyton interdigitale, 445, 72 h incubation, read-out: MIC TI 72 h) was 15.6 µM (≈ 9.47 µg/mL), the MIC ([12]; Trichophyton interdigitale, 445, 120 h incubation, read-out: MIC TI 120 h) was 15.6 µM (≈ 9.47 µg/mL) and the “MIC KP-E 48 h” value ([15]; 48 h incubation) was 125 µM (≈ 75.8 µg/mL). The “MIC KP 48 h” value [16] was 125 µM (≈ 75.8 µg/mL).

Bacitracin [reference compound] showed an MIC [1] of 15.62 µM, an MIC ([2]; 48 h incubation, read-out: MIC SE 48 h) of 31.25 µM and an MIC ([3]; 48 h incubation, read-out: MIC EF 48 h) of 62.5 µM. For the same compound, the MIC ([4]; 48 h incubation, read-out: MIC EC 48 h) was >500 µM, the MIC [5] was >500 µM and the “MIC KP-E 48 h” value ([15]; 48 h incubation) was >500 µM. The “MIC KP 48 h” value [16] was >500 µM.
